Experiments:
[1] = tested on: human alkaline phosphatase; assay: Selectivity: inhibition of alkaline phosphatase; format: biochemical; settings: selectivity panel
sEH-phosphatase activity = biological target: T1, sEH-phosphatase activity (Homo sapiens, UniProt P34913); assay: Selectivity: inhibition of sEH-phosphatase activity; format: biochemical; settings: selectivity panel
T1 sequence (P34913 1-555): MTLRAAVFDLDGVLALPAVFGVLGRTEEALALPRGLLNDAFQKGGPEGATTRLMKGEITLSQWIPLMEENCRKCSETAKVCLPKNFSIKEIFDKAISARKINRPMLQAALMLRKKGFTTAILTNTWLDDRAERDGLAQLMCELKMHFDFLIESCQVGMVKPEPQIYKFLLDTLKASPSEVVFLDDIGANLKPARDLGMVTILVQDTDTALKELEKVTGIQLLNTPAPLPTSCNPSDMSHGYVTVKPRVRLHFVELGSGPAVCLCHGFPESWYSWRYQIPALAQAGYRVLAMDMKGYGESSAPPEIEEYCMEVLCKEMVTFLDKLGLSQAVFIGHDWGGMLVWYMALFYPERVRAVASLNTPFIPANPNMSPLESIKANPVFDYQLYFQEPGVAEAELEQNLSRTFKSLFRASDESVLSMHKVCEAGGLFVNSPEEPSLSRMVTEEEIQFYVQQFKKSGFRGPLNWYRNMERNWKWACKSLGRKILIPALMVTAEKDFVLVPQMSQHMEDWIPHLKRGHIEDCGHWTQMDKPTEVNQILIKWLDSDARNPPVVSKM

human sEH = biological target: T2, human sEH (Homo sapiens, UniProt P34913); assay: Reversibility of inhibition: incubation with inhibitor, then dialysis; format: biochemical; settings: 20 nM human sEH incubated with 10 μM inhibitor for 15 min, then dialyzed
T2 sequence (P34913 1-555): T1 sequence (P34913 1-555)

esterases and amidases = assay: Selectivity: inhibition of a series of esterases and amidases; format: biochemical; settings: selectivity panel
[2] = human, cited from earlier work
human microsomal EH = biological target: T3, human microsomal EH (Homo sapiens, UniProt P07099); assay: Selectivity: inhibition of microsomal EH; format: biochemical; settings: selectivity panel
T3 sequence (P07099 1-455): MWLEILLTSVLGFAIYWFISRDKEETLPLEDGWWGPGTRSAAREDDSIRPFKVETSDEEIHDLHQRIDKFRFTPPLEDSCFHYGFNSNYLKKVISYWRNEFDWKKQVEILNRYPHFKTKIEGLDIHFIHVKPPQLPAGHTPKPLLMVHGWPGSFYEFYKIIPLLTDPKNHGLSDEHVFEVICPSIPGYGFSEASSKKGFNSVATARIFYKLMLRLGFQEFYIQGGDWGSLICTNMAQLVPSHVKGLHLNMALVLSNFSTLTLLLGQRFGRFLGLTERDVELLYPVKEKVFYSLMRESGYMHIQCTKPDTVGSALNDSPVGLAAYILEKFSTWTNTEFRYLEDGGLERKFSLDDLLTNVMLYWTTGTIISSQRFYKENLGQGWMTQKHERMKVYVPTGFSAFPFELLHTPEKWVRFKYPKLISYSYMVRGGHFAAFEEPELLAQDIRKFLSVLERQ

With `C[C@]12CC[C@@H]3c4ccc(O)cc4C[C@@H](CCCCCCCCC[S+]([O-])CCCC(F)(F)C(F)(F)F)[C@H]3[C@@H]1CC[C@@H]2O` (stereo partly shown) [fulvestrant] as the molecule, how does the “Inhibition of human alkaline phosphatase” value [1] read?
The value was “only inhibit the sEH”.

And the “Inhibition of sEH-phosphatase activity” value (sEH-phosphatase activity)?
The value was “only inhibit the sEH”.

And the “sEH activity recovered after dialysis” value (human sEH)?
The value was “more than 80%”.

What about the “Inhibition of a series of esterases and amidases” value (esterases and amidases) of the same molecule?
Its value is “only inhibit the sEH”.

What about the Stability in humans [2] of the same molecule?
The Stability in humans was “very stable”.

And the Blood concentration ([2]; for several weeks following intramuscular treatment)?
Its Blood concentration is “around 10 nM”.

And the “Inhibition of human microsomal EH” value (human microsomal EH)?
The value was “only inhibit the sEH”.
